Bridge positions count the residues as written; N and C are the ends. Square brackets hold non-standard residues; d marks the D form. Peptide text beside a SMILES is read from it. * marks the point of attachment. Pen = CC(C)(S)[C@H](N)C(=O)O; Tle = CC(C)(C)[C@H](N)C(=O)O; Pip = O=C(O)[C@@H]1CCCCN1; Propionyl = CCC(=O)*; Sar = CNCC(=O)O
What was measured:
[1] = target: T1, human neurotensin receptor type 1 (hNTR-1) (Homo sapiens, UniProt P30989); test: Competition binding assay with [3H]-neurotensin on human NTR-1 membranes (CHO cells); details: read-out: NTR-1 binding affinity Ki, Human NTR-1
T1 construct: purchased PerkinElmer; host or cells: CHO cells stably expressing human NTR-1 (membrane homogenates)
T1 sequence (P30989 whole entry): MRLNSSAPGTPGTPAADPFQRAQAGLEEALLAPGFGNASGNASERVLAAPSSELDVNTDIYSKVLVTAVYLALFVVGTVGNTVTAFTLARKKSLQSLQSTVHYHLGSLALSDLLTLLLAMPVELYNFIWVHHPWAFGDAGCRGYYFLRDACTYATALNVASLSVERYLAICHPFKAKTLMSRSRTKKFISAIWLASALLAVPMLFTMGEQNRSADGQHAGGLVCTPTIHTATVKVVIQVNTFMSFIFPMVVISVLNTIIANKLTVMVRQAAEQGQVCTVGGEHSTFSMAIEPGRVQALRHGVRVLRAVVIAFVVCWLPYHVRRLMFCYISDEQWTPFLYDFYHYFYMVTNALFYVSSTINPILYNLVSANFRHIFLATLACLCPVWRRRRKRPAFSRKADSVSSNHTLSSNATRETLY

[2] = target: T2, rat neurotensin receptor type 1 (rNTR-1) (Rattus norvegicus, UniProt P20789); test: Competition binding assay with [3H]-neurotensin on rat NTR-1 membranes (HEK293 cells); details: read-out: NTR-1 binding affinity Ki, Rat NTR-1
T2 construct: host or cells: HEK293 cells (membrane homogenates)
T2 sequence (P20789 whole entry): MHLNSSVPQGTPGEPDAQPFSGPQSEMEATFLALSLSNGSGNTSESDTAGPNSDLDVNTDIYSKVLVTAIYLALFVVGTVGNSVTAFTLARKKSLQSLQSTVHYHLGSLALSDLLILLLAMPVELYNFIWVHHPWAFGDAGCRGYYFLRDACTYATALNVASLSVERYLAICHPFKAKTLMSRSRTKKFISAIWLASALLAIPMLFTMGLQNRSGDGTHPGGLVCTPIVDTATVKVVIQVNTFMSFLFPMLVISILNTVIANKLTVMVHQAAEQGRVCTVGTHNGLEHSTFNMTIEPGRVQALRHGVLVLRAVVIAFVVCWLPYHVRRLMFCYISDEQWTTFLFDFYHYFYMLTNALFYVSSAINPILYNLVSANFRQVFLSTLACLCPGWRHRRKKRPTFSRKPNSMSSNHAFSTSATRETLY

Sprague-Dawley rats = test: Hypothermic response after i.v. bolus in Sprague-Dawley rats; format: in vivo, rat; details: 5 mg/kg eq. NT i.v. bolus
[3] = test system: FVB/N mice with KA-induced status epilepticus; test: Kainic acid-induced status epilepticus model (body temperature, seizures, neurodegeneration, neuroinflammation, mossy fiber sprouting); format: in vivo, mouse; details: administered 30 min after SE onset
From the text: In the present case, excitotoxicity was induced by subcutaneous (s.c.) injection of kainic acid (KA), a pro-convulsant agent known to induce a status epilepticus (SE) with excitotoxicity, neuroinflammation, and severe neuronal damage in the hippocampus that can be observed 3 to 7 days after KA administration, and with aberrant axonal sprouting of the dentate gyrus mossy fibers that can be observed at 7-8 weeks after KA administration. We tested the effect of compound XIV on i) epileptic activity (persistence of recurrent seizures), ii) neurodegeneration, neuroinflammation and the resulting brain tissue damage and iii) aberrant axonal sprouting of the dentate gyrus mossy fibers.
FVB/N adult male mice were injected with a single dose of KA (40-45 mg/kg s.c.) to generate mice with spontaneous recurrent seizures as a hallmark of SE. A negative control group of mice were administered saline 0.9% instead of KA and no further treatment (“SHAM”, n=5). Thirty minutes after the onset of SE, mice received either an intravenous (tail vein) bolus injection of compound XIV at the dose of 4 mg/kg eq. NT (treatment group “SE+HT”, n=5) or saline 0.9% (group “SE”, n=5), or a high dose of diazepam (DZP) at 15 mg/kg), a potent anti-convulsive and anti-epileptic drug (positive control group “SE+DZP”). Body temperature was monitored before KA injection and then every 15 min during 6 hours thereafter, using a rectal probe. During this period, mice were assessed for the occurrence and severity of motor seizures. One week later, animals were sacrificed for histological assessment of neuronal cell death on coronal sections, the hippocampal formation being the main structure in the brain showing tissue damage in this model of excitotoxicity. Another group of animals with the same treatments was sacrificed 8 weeks for histological assessment of aberrant axonal sprouting of the dentate gyrus mossy fibers.
Administration of KA (40-45 mg/kg; s.c.) caused characteristic sequential behavioral changes. Immediately after being injected, all animals developed immobility (stage 1). Within 30 minutes after KA injection, automatisms with head nodding, forelimb clonus and circling behavior (stages 2-3) were observed. Then most animals progressed to intermittent (stage 4) followed by continuous (stage 5) rearing with forelimb clonus and falling behavior. […] Only animals attaining at least Racine stage 5 seizures were included in the study. The SE occurred around 2 hours after KA injection, was characterized by stage 5-6 seizures and often associated with hyperthermia (FIG. 13A). Compound XIV administered 30 min after SE onset (SE30) invariably led to transient hypothermia (FIG. 13A), which persisted at least 2 hrs. Mean decreases in body temperature (BT) of −2.5° C. and −3.6° C. were respectively recorded for SE30+ compound XIV animals as compared to SE animals (F=52.34; ***P<0.001). […] SE30+ compound XIV animals presented an average of stage 2 seizures or fewer during the rest of experiment. A subset of animals was administered i.p. a high dose of diazepam (DZP). […] Thus, administration of compound XIV at the dose of 4 mg/kg eq. […] This effect correlated with a −3 to −6° C. decrease in body temperature during ˜2.5 hours.
Using the anti-NeuN antibody and Fluoro-jade C that respectively label a neuronspecific nuclear protein and neuronal death, we observed a broad loss of CA1 and CA3 pyramidal cells as well as some dentate hilar neurons in the hippocampus of control SE animals (FIG. 14A, panel B), as compared to SHAM animals (FIG. 14A, panel A).
SE-induced gliosis involved microglia and astroglial cell types. We used GFAP and Iba1 immunolabeling to estimate the effect of compound XIV on neuroinflammation. In SHAM animals, a basal labeling for GFAP and Iba1 was detected in the HF (FIG. 14A, panel D). In SE animals, a very strong activation of glial cells occurred in all hippocampal layers (FIG. 14, panels E, H). […]

| SMILES | Ki [1] | Ki [2] | Maximal decrease in body temperature (Sprague-Dawley rats; 60 to 90 min post-injection) | further results |
| --- | --- | --- | --- | --- |
| CCC(=O)N[C@@H]1CSSC[C@@H](C(=O)N[C@@H](CCCNC(=N)N)C(=O)N[C@@H](CCCNC(=N)N)C(=O)N2CCC[C@H]2C(=O)N[C@@H](Cc2c[nH]c3ccccc23)C(=O)N[C@H](C(=O)N[C@@H](CC(C)C)C(=O)O)C(C)(C)C)NC(=O)CN(C)C(=O)[C@H](CCCNC(=N)N)NC(=O)[C@H](CC(C)C)NC(=O)[C@H](CCCNC(=N)N)NC(=O)[C@@H]2CCCCN2C(=O)[C@H](CCSC)NC1=O [XVIII, Pr-cMPipRLRSarC-RRPWTIeL-OH] (Propionyl-[dC]M[Pip]RLR[Sar]CRRPW[Tle]L-OH; disulfide 1-8) | 2.98 ± 1.08 nM | 0.02 ± 0.01 nM |  | Maximal decrease in body temperature (Sprague-Dawley rats; 90 min post-injection): around −2.8 °C |
| CCC(=O)N[C@@H]1CSSC[C@@H](C(=O)N[C@@H](CCCCN)C(=O)N[C@@H](CCCNC(=N)N)C(=O)N2CCC[C@H]2C(=O)N[C@@H](Cc2c[nH]c3ccccc23)C(=O)N[C@H](C(=O)N[C@@H](CC(C)C)C(=O)O)C(C)(C)C)NC(=O)CN(C)C(=O)[C@H](CCCNC(=N)N)NC(=O)[C@H](CC(C)C)NC(=O)[C@H](CCCNC(=N)N)NC(=O)[C@@H]2CCCCN2C(=O)[C@H](CCSC)NC1=O [XIX, Pr-cMPipRLRSarC-KRPWTIeL-OH] (Propionyl-[dC]M[Pip]RLR[Sar]CKRPW[Tle]L-OH; disulfide 1-8) | 6.34 ± 2.25 nM | 0.03 ± 0.02 nM |  | Maximal decrease in body temperature (Sprague-Dawley rats; 90 min post-injection): around −2.8 °C |
| CCC(=O)N[C@@H]1CSSC[C@@H](C(=O)N[C@@H](CCCCN)C(=O)N[C@@H](CCCNC(=N)N)C(=O)N2CCC[C@H]2C(=O)N[C@@H](Cc2ccc(O)cc2)C(=O)N[C@H](C(=O)N[C@@H](CC(C)C)C(=O)O)C(C)(C)C)NC(=O)CN(C)C(=O)[C@H](CCCNC(=N)N)NC(=O)[C@H](CC(C)C)NC(=O)[C@H](CCCNC(=N)N)NC(=O)[C@@H]2CCCCN2C(=O)[C@H](CCSC)NC1=O [XVI, Pr-cMPipRLRSarC-KRPYTIeL-OH] (Propionyl-[dC]M[Pip]RLR[Sar]CKRPY[Tle]L-OH; disulfide 1-8) | 0.15 ± 0.06 nM |  | around −2 °C |  |
| CN1C(=O)CN=C(c2ccccc2)c2cc(Cl)ccc21 [DZP, diazepam, reference compound] |  |  |  | effect on body temperature (BT) compared with SE animals [3]: hypothermia was also observed; glial inflammatory response in the hippocampus (GFAP, Iba1) compared with SE animals [3]: significantly decreased; seizure stage (Racine) during the rest of the experiment [3]: 1-2 stage; number of mossy fiber terminals innervating the IML (ZnT3) compared with SE animals ([3]; 8 weeks after SE): considerably reduced; neurodegeneration in the hippocampus (NeuN, Fluoro-jade C) compared with SE animals ([3]; one week later): significantly decreased |
| CCC(=O)N[C@@H]1CSSC[C@@H](C(=O)N[C@@H](CCCNC(=N)N)C(=O)N[C@@H](CCCNC(=N)N)C(=O)N2CCC[C@H]2C(=O)N[C@@H](Cc2ccc(O)cc2)C(=O)N[C@H](C(=O)N[C@@H](CC(C)C)C(=O)O)[C@@H](C)CC)NC(=O)CN(C)C(=O)[C@H](CCCNC(=N)N)NC(=O)[C@H](CC(C)C)NC(=O)[C@H](CCCNC(=N)N)NC(=O)[C@@H]2CCCCN2C(=O)[C@H](CCSC)NC1=O [Compound IX, Pr-cMPipRLRSarC-RRPYIL-OH] |  |  |  | Maximal decrease in body temperature (Sprague-Dawley rats; 30 min post-injection): −1.2 °C |
| CCC(=O)N[C@@H]1CSSC[C@@H](C(=O)N[C@@H](CCCNC(=N)N)C(=O)N[C@@H](CCCNC(=N)N)C(=O)N2CCC[C@H]2C(=O)N[C@@H](Cc2ccc(O)cc2)C(=O)N[C@H](C(=O)N[C@@H](CC(C)C)C(=O)O)C(C)(C)C)NC(=O)CN(C)C(=O)[C@H](CCCNC(=N)N)NC(=O)[C@H](CC(C)C)NC(=O)[C@H](CCCNC(=N)N)NC(=O)[C@@H]2CCCCN2C(=O)[C@H](CCSC)NC1=O [Compound XV, Pr-cMPipRLRSarC-RRPYTIeL-OH] (Propionyl-[dC]M[Pip]RLR[Sar]CRRPY[Tle]L-OH; disulfide 1-8) | 0.4 ± 0.2 nM | 0.06 ± 0.02 nM | around −2 °C |  |
| CCC(=O)N[C@@H]1CSSC(C)(C)[C@@H](C(=O)N[C@@H](CCCCN)C(=O)N[C@@H](CCCNC(=N)N)C(=O)N2CCC[C@H]2C(=O)N[C@@H](Cc2ccc(O)cc2)C(=O)N[C@H](C(=O)N[C@@H](CC(C)C)C(=O)O)C(C)(C)C)NC(=O)CN(C)C(=O)[C@H](CCCNC(=N)N)NC(=O)[C@H](CC(C)C)NC(=O)[C@H](CCCNC(=N)N)NC(=O)[C@@H]2CCCCN2C(=O)[C@H](CCSC)NC1=O [XX, Pr-cMPipRLRSarPen-KRPYTIeL-OH] (Propionyl-[dC]M[Pip]RLR[Sar][Pen]KRPY[Tle]L-OH; disulfide 1-8) | 0.11 ± 0.03 nM | 0.08 ± 0.06 nM | around −2 °C |  |
| CCC(=O)N[C@@H]1CSSC[C@@H](C(=O)N[C@@H](CCCNC(=N)N)C(=O)N[C@@H](CCCCN)C(=O)N2CCC[C@H]2C(=O)N[C@@H](Cc2ccc(O)cc2)C(=O)N[C@H](C(=O)N[C@@H](CC(C)C)C(=O)O)C(C)(C)C)NC(=O)CN(C)C(=O)[C@H](CCCNC(=N)N)NC(=O)[C@H](CC(C)C)NC(=O)[C@H](CCCNC(=N)N)NC(=O)[C@@H]2CCCCN2C(=O)[C@H](CCSC)NC1=O [XVII, Pr-cMPipRLRSarC-RKPYTIeL-OH] (Propionyl-[dC]M[Pip]RLR[Sar]CRKPY[Tle]L-OH; disulfide 1-8) | 0.47 ± 0.19 nM | 0.19 ± 0.07 nM | around −2 °C |  |
